Data on 2 molecules can be found in patent US8158152B2, “Lyophilization process and products obtained thereby” (SciDose LLC, priority 2005, dated 2012).

The conditions of data set [1]: cited from earlier work.
Data set [2] can be described thus: Solubility as stated in words. Format: physicochemical. Conditions: in the presence of small quantities of HCl.

Regarding `O=P1(N(CCCl)CCCl)NCCCO1` (stereo not shown) [cyclophosphamide], the solubility in ethanol result in data set [1] (ethanol) is “highly soluble”. Besides, in data set [1] (water), the solubility in water result is recorded as “sparingly soluble”.
On to `CCC(C)n1ncn(-c2ccc(N3CCN(c4ccc(OCC5COC(Cn6cncn6)(c6ccc(Cl)cc6Cl)O5)cc4)CC3)cc2)c1=O` (stereo not shown) [itraconazole], for which, in data set [1] (general knowledge), the “solubility in solvents, as generally considered” value is recorded as “soluble in methylene chloride only”. In addition, the “solubility in non-aqueous solvents (e.g. THF)” value in data set [2] is recorded as “high concentrations of itraconazole can be dissolved”.
